Reference: patent publication US5814646A, “Inhibitors of amyloid beta-protein production” (Eli Lilly and Company, priority 1995, dated 1998)

System: Aβ production in 293 751 SWE and CHO 751 SWE cells (transfected with APP-751 Swedish mutation)
Test: Aβ production inhibition activity in cells (Aβ ELISA of conditioned media, normalized for cytotoxicity by MTT)
Assay type: cell-based
Details: 5 μg/ml
Method: Two cell lines (human kidney cell line 293 and Chinese hamster ovary cell line CHO) were stably transfected with the gene for APP-751 containing the double mutation Lys651 -Met652 to Asn651 -Leu652 (APP-751 numbering) commonly called the Swedish mutation using the method described in Citron et al., (1992) Nature 360:672-674. The transfected cell lines were designated as 293 751 SWE and CHO 751 SWE, and were plated in Corning 96 well plates at 2.5×10^4 or 1×10^4 cells per well respectively in Dulbecco's minimal essential media plus 10% fetal bovine serum. Following overnight incubation at 37° C. in an incubator equilibrated with 10% carbon dioxide (CO2), the media were removed and replaced with 200 μL per well of media containing a test compound. After a two hour pretreatment period, the media were again removed and replaced with fresh media containing the test compound and the cells were incubated for an additional two hours.
Test compound stocks were prepared in DMSO such that at the final concentration used in the treatment, the concentration of DMSO did no exceed 0.5%. After treatment, plates were centrifuged in a Beckman GPR at 1200 rpm for five minutes at room temperature to pellet cellular debris from the conditioned media. From each well, 100 μL of conditioned media were transferred into an ELISA plate precoated with antibody 266 against βAP-13-28 (Seubert et al., supra.) and stored at 4° C. overnight. An ELISA assay employing labeled antibody 6C6 (against βAP-1-16) was run the next day to measure the amount of Aβ produced.
Cytotoxic effects of the test compounds were measured by a modification of the method of Hansen et al., (1989) J. Immun. Meth. 119:203-210. To the cells remaining in the tissue culture plate, was added 25 μL of a 3, (4,5-dimethylthiazol-2-yl)2,5-diphenyltetrazolium bromide (MTT) stock solution (5 mg/mL) to a final concentration of […]. Cells were incubated at 37° C. for one hour, and cellular activity was stopped by the addition of an equal volume of MTT lysis buffer (20% w/v sodium dodecylsulfate in 50% DMF, pH 4.7). Complete extraction was achieved by overnight shaking at room temperature. The difference in the OD562 nm and the OD650 nm was measured in a Molecular Devices UVmax microplate reader as an indicator of the cellular viability.
The results of the Aβ ELISA were fit to a standard curve and expressed as ng/mL Aβ peptide. In order to normalize for cytotoxicity, these Aβ results were divided by the MTT results and expressed as a percentage of the results from a drug -free control.
The test compounds were assayed for Aβ production inhibition activity in cells at […] using the test. The results presented in Table 1 are the mean and standard deviation of at least six replicate assays. IC50 means the concentration of test compound in micromoles/liter required to inhibit Aβ production by 50%.

Row | SMILES | inhibition at 5 µg/mL [%]
1 | CCCCCCNC(=S)N(O)Cc1ccc(OCc2cc(OC)cc(OC)c2)cc1 [Compound 61] | 28
2 | CCCCCCNC(=S)N(O)Cc1cccc(OCc2ccc(C(C)(C)C)cc2)c1 [Compound 50] | 25
3 | ON(Cc1ccc(OCc2ccc(F)c(F)c2)cc1)C(=S)NCc1ccccc1 [Compound 56] | 28
4 | CCCCCCNC(=S)N(O)Cc1ccc(OCc2ccc(Cl)c(Cl)c2)cc1 [Compound 55] | 37
5 | COc1cc(COc2ccc(CN(O)C(=S)NCc3ccccc3)cc2)cc(OC)c1 [Compound 60] | 17
6 | Cc1cccc(CNC(=S)N(O)C(C)c2cccc(NC(=O)c3ccc(C(C)(C)C)cc3)c2)c1 (stereo not shown) [Compound 100] | 1
7 | CCCCCCNC(=S)N(O)C(Cc1ccccc1)c1cccc(Oc2ccc(C(C)(C)C)cc2)c1 (stereo not shown) [Compound 34] | 20
8 | ON(Cc1ccc(OCc2ccc(Cl)c(Cl)c2)cc1)C(=S)NCc1ccccc1 [Compound 54] | 25

Same assay, conditions: 10 μg/ml, % of drug-free control, normalized to MTT

Row | SMILES | inhibition at 10 µg/mL [%] | Aβ Production Inhibition Activity, % inhibition at 10 μg/ml [%]
9 | Cc1nnc(NC(=O)Nc2ccccc2F)s1 [Compound 249] | 6 | –
10 | CC(NC(=S)N(O)C(C)c1cccc(Oc2ccc(C(C)(C)C)cc2)c1)c1ccccc1 (stereo not shown) [Compound 13] | 46 | –
11 | CCCCCCNC(=S)Nc1ccccc1Oc1ccc(C(C)(C)C)cc1 [Compound 185] | 21 | –
12 | CCCCCCNC(=S)N(O)Cc1ccc(-c2ccc(C(C)(C)C)cc2)cc1 [Compound 80] | 11 | –
13 | CSc1cccc(NC(=O)Nc2nnc(C)s2)c1 [Compound 252] | 25 | –
14 | CC(C)(C)OC(=O)N1CCCCC1CNC(=S)Nc1ccc(Oc2ccc(C(C)(C)C)cc2)cc1 (stereo not shown) [Compound 124] | 31 | –
15 | CCCCCCNC(=S)N(Cc1cccc(Oc2ccc(C(C)(C)C)cc2)c1)OC [Compound 43] | 16 | –
16 | O=C(Nc1ccccc1)Nc1nncs1 [Compound 255] | 1 | –
17 | CC(C)(C)c1ccc(Oc2ccc(NC(=S)NCc3cccnc3)cc2)cc1 [Compound 121] | 37 | –
18 | CCCc1cc(C(C)(C)C)ccc1Oc1ccc(NC(=S)Nc2ccc(C)c(C)c2)cc1 [Compound 196] | 44 | –
19 | Cc1nnc(NC(=O)Nc2c(C)cccc2C)s1 [Compound 251] | -13 | –
20 | CCCCCCNC(=S)N(O)Cc1cccc(OCc2ccc(C(=O)CC)c(O)c2CCC)c1 [Compound 70] | 37 | –
21 | Cc1cc(C(=O)Nc2ccc(Cl)c(Cl)c2)no1 [Compound 242] | – | 29
22 | CCCCCCC(c1cccc(Oc2ccc(C(C)(C)C)cc2)c1)N(O)C(=S)NCc1ccccc1 (stereo not shown) [Compound 36] | 26 | –
23 | CS(=O)(=O)c1ccc(NC(=O)Nc2ccc(Cl)cc2)cc1 [Compound 161] | 40 | –
24 | CCN1CCCC(C(=O)Nc2ccc(Cl)c(Cl)c2)C1 (stereo not shown) [Compound 230] | – | 28
25 | COC(=O)c1ccccc1NC(=O)Nc1ccc(Cl)c(Cl)c1 [Compound 142] | 22 | –
26 | CCCCCCNC(=S)Nc1ccc(C(=O)c2ccccc2)c(O)c1CCC [Compound 202] | 42 | –

Same assay, conditions: 2 h pretreatment + 2 h incubation

Row | SMILES | IC50 [µM]
27 | CCCCCCNC(=S)N(O)C(CC)c1cccc(Oc2ccc(C(C)(C)C)cc2)c1 (stereo not shown) [Compound 24] | 8.8
28 | CCC(c1cccc(Oc2ccc(C(C)(C)C)cc2)c1)N(O)C(=S)NCc1cccc(OC)c1 (stereo not shown) [Compound 21] | 5.6
29 | COc1c(C(C)(C)C)cc(COc2cccc(CN(O)C(=S)NCc3ccccc3)c2)cc1C(C)(C)C [Compound 72] | 8.1
30 | CC(c1cccc(OCc2ccc(C(C)(C)C)cc2)c1)N(O)C(=S)NCc1ccccc1 (stereo not shown) [Compound 75] | 8.9
31 | CC(C)(C)c1ccccc1Oc1ccc(NC(=S)Nc2cccc(C(F)(F)F)c2)cc1 [Compound 177] | 7.6
32 | CC(C)(C)c1ccc(Oc2ccc(NC(=S)NCc3ccc(Cl)c(Cl)c3)cc2)cc1 [Compound 133] | 6.5
33 | COc1c(C(C)(C)C)cc(COc2ccc(CN(O)C(=S)NCc3ccccc3)cc2)cc1C(C)(C)C [Compound 73] | 5.9
34 | CC(C)(C)c1cc(C(=O)Nc2ccc(Cl)c(Cl)c2)on1 [Compound 245] | 9.8
35 | O=C(Nc1ccccc1)Nc1ccc(Cl)c(Cl)c1 [Compound 152] | 11.4
36 | COc1ccc(CNC(=S)Nc2ccc(Oc3ccc(C(C)(C)C)cc3)cc2)cc1 [Compound 111] | 8.3
37 | CC(C)(C)c1ccc(Sc2ccc(CN(O)C(=S)NCc3ccccc3)cc2)cc1 [Compound 88] | 7.5
38 | CCCCCCNC(=S)N(O)Cc1ccc(Sc2ccc(C(C)(C)C)cc2)cc1 [Compound 89] | 5.3
39 | CC(C)(C)c1ccc(Oc2ccc(NC(=S)NCCc3ccccc3)cc2)cc1 [Compound 116] | 19.8
40 | CC(C)(C)c1ccc(Oc2ccc(NC(=S)NCc3cccc(C(F)(F)F)c3)cc2)cc1 [Compound 179] | 6.5
41 | O=C(Nc1ccc(Cl)c(Cl)c1)Nc1nncs1 [Compound 235, 1-1,3,4-thiadiazol-2-yl-3-(3,4-dichlorophenyl)urea] | 10
42 | O=C(Nc1ccc(Cl)c(Cl)c1)c1nc(C(F)(F)F)no1 [Compound 247] | 4.4
43 | Cc1ccccc1CNC(=S)N(O)C(C)c1cccc(Oc2ccc(C(C)(C)C)cc2)c1 (stereo not shown) [Compound 5] | 10.3
44 | CC(C)(C)c1cccc(Oc2cccc(N(O)C(=S)Nc3ccc(Cl)c(C(F)(F)F)c3)c2)c1 [Compound 173] | 2.8

Row | SMILES | IC50 [µM]
45 | Cc1ccc(CNC(=S)N(O)C(C)c2cccc(Oc3ccc(C(C)(C)C)cc3)c2)cc1Cl (stereo not shown) [Compound 8] | 9
46 | CC(C)(C)c1ccc(Oc2ccc(NC(=S)NCc3ccc(F)cc3Cl)cc2)cc1 [Compound 130] | 7.2
47 | CCCCCCNC(=S)N(O)Cc1cccc(Oc2ccc(C(C)(C)C)cc2)c1 [Compound 27] | 9.4
48 | S=C(NCc1ccccc1)Nc1ccc(Cl)c(Cl)c1 [Compound 146] | 21.8
49 | CSc1cc(Cl)c(NC(=O)Nc2cccc(Cl)c2)cc1Cl [Compound 163] | 10.5
50 | COC(=O)c1sc2ccccc2c1C(=O)Nc1ccc(Cl)c(Cl)c1 [Compound 233] | 15.2
51 | CC(C)(C)c1ccc(Oc2ccccc2NC(=S)Nc2ccc(Cl)c(C(F)(F)F)c2)cc1 [Compound 170] | 4.4
52 | S=C(Nc1ccc(Cl)c(Cl)c1)Nc1ccc(Cl)c(Cl)c1 [Compound 153] | 1.7
53 | CCCCc1ccc(Oc2cccc(C(C)N(O)C(=S)NCc3ccccc3)c2)cc1 (stereo not shown) [Compound 45] | 9.2
54 | Cc1cccc(CNC(=S)N(O)C(C)c2cccc(Oc3ccc(C(C)(C)C)cc3)c2)c1 (stereo not shown) [Compound 6] | 11.1
55 | CC(C)(C)c1ccccc1Oc1ccc(NC(=S)Nc2ccccc2C(F)(F)F)cc1 [Compound 190] | 13.8
56 | CC(C)(C)c1ccc(Oc2cccc(CN(O)C(=S)NCc3ccccc3)c2)cc1 [Compound 26] | 3.4
57 | CC(C)(C)c1ccc(-c2ccc(CN(O)C(=S)Nc3ccc(Cl)c(C(F)(F)F)c3)cc2)cc1 [Compound 83] | 12.4
58 | CC(C)(C)c1ccc(Oc2ccc(NC(=S)NCCCc3ccccc3)cc2)cc1 [Compound 117] | 17
59 | CC(C)(C)c1ccc(Oc2ccc(NC(=S)NCCc3ccccn3)cc2)cc1 [Compound 123] | 12.3
60 | CC(C)(C)c1cccc(Oc2cccc(NC(=S)Nc3ccc(Cl)c(C(F)(F)F)c3)c2)c1 [Compound 172] | 3.8
61 | CCCCCCNC(=S)N(O)Cc1ccccc1Oc1ccc(C(C)(C)C)cc1 [Compound 182] | 34
